Assay [1] relates to serotonin (2a, 2b and 2c receptors). In words: Serotonin receptor inositol phosphate 1 (IP1) assay (Multispan). The format is cell-based, Human. The settings on record: percentage relative response vs 1 μM serotonin; FIG. 2. The method, then: Compounds 005, 008 and 018 were assayed using a serotonin (2a, 2b and 2c receptors) inositol phosphate 1 (IP1) assay, provided by Multispan. The reference used was 1 μM serotonin to calculate the percentage relative response. The results can be seen in FIG. 2.
IP-One Gq kit—cisbio—cat. No. 62IPAPEB
(§1) MULTISCREEN™ CHO-K1 Cell Line Stably Expressing Human 5-HT2A Receptor, Catalog DC1324-1
MULTISCREEN™ CHO-K1 Cell Line Stably Expressing Human 5-HT2B Receptor, Catalog DC1325-1
(§2) MULTISCREEN™ CHO-K1 Cell Line Stably Expressing Human 5-HT2C Receptor, Catalog DC1326-1

Assay [2] concerns the target T1, HTR2A (Homo sapiens, UniProt P28223).
T1 construct: host or cells: U2OS
As to the kind of experiment: B-arrestin assay (DiscoverX PathHunter), 2a receptor. The format is cell-based. The settings on record: percentage relative response vs 10 μM serotonin; FIG. 4. The method, then:
(§3) Compounds 005, 008 and 018 were assayed using a serotonin (1a, 1b, 2a and 2c receptors) B-arrestin assay, provided by DiscoverX. The reference used was 10 μM serotonin to calculate the percentage relative response. The results can be seen in FIG. 4. […] The compounds were also assayed in a serotonin 2b receptor B-arrestin assay, the results of which can be seen in FIG. 5.
HTR2A PathHunter® eXpress HTR2A U2OS β-Arrestin GPCR Assay 93-0401E3CP19M 200 dp (2×96-well)

The test system of assay [3] is serotonin (1a, 1b, 2a, 2c and 7 receptors). As to the kind of experiment: Serotonin receptor cAMP assay (Multispan, HTRF). The format is cell-based, Human. The settings on record: percentage relative response vs 10 μM forskolin; serotonin control; FIG. 1. The method, then: Compounds 005, 008 and 018 were assayed using a serotonin (1a, 1b, 2a, 2c and 7 receptors) cAMP assay, provided by Multispan. The reference used was 10 μM forskolin (a cAMP activator) to calculate the percentage relative response, serotonin was used as the control. The results can be seen in FIG. 1.
cAMP Gs dynamic kit—cisbio—cat. No. 62AM4PEC
MULTISCREEN™ HEK293T Cell Line Stably Expressing Human 5-HT1A Receptor, Catalog DC1319a
MULTISCREEN™ HEK293T Cell Line Stably Expressing Human 5-HT1B Receptor, Catalog DC1320a
as §1, §2
MULTISCREEN™ HEK293T Cell Line Stably Expressing Human 5-HT7 Receptor, Catalog DC1334

In assay [4] the target is T2, 5-HT2C Receptor (Homo sapiens, UniProt P28335).
T2 construct: host or cells: CHO-K1
T2 sequence (P28335 33-458): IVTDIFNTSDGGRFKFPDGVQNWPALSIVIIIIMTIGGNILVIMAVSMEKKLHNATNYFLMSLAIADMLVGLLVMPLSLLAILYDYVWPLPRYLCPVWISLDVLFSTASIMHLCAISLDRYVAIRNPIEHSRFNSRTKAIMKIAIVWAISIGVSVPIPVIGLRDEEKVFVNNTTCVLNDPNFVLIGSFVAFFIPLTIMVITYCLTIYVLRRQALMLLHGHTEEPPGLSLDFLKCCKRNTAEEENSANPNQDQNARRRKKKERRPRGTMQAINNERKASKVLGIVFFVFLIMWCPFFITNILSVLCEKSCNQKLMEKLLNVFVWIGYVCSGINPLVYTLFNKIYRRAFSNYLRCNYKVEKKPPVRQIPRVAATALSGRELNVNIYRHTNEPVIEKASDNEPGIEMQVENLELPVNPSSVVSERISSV
In words: Serotonin calcium (Ca2+) assay, 2c receptor. It is filed as cell-based. The settings on record: percentage relative response vs 10 μM serotonin, RLU; FIG. 3. On the procedure: Compounds 005, 008 and 018 were assayed using a serotonin (2a, 2b and 2c receptors) calcium (Ca^2+) assay, provided by Multispan. The reference used was 10 μM serotonin to calculate the percentage relative response in relative light units (RLU). The results can be seen in FIG. 3. Some activity for compound 005 in the 2c receptor assay was detected.
FLIPR calcium 6 assay explorer kit—VWR—cat. No. MLDVR8190
as §2

Assay [5] concerns the target T3, HTR2C (Homo sapiens, UniProt P28335).
T3 construct: host or cells: U2OS
T3 sequence (P28335 33-458): T2 sequence (P28335 33-458)
As to the kind of experiment: B-arrestin assay (DiscoverX PathHunter), 2c receptor. The format is cell-based. Conditions: percentage relative response vs 10 μM serotonin; FIG. 4. On the procedure: as §3
HTR2C PathHunter® eXpress HTR2C U2OS β-Arrestin GPCR Assay 93-0289E3CP3M 200 dp (2×96-well)

Each structure is given as a SMILES string.

This note sets out measurements from patent US12534441B2, “Tryptamine analogues” (priority 2021, dated 2026).

T1 sequence (P28223 whole entry): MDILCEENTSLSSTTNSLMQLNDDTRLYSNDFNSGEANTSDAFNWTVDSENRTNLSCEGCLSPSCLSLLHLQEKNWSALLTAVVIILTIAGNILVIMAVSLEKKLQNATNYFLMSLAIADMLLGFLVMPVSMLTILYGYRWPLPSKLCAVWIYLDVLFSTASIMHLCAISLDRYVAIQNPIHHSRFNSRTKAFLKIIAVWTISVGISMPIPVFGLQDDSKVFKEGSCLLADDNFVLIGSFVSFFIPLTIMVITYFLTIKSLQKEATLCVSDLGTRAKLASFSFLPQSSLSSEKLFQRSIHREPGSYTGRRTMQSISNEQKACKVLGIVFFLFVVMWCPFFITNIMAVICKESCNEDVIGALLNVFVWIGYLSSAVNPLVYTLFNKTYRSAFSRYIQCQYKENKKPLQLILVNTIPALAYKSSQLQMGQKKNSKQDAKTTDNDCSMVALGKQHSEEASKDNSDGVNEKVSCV

In the case of `CCN(C)CCc1c[nH]c2cccc(Oc3ccccn3)c12` [Compound 008, (S)-ethyl(methyl){2-[4-(pyridin-2-yloxy)-1H-indol-3-ylethyl}-azanium], in assay [1], the “IP1 assay result (response curves)” value was “incomplete response curves in this assay, showing agonistic activity”. Moreover, in assay [2], the “B-arrestin assay activity, 2a receptor” value is reported as “Some activity”.
Take `CCN(C)CCc1c[nH]c2cccc(OC(=O)Nc3ccccc3)c12` [Compound 005, (S)-ethyl(methyl)(2-{4-[(phenylcarbam-oyl)oxy]-1H-indol-3-yl}ethyl)azanium]: in assay [3], the “cAMP assay result (activation of the cAMP pathway)” value was “may have some activation of the cAMP pathway”. For the same compound, the “IP1 assay result (response curves)” value in assay [1] was “incomplete response curves in this assay, showing agonistic activity”. In addition, the “Ca2+ assay activity, 2c receptor” value in assay [4] is on record as “Some activity”. The “B-arrestin assay activity, 2a receptor” value in assay [2] is recorded as “Some activity”. For the same compound, the “B-arrestin assay activity, 2c receptor” value in assay [5] is given as “appeared to have activity”.
Regarding `CC(C)N(C)[C@H](C)Cc1c[nH]c2ccccc12` [Compound 018, (R)-[(2R)-1-(1H-indol-3-yl)propan-2-yl](methyl)(propan-2-yl)azanium], in assay [1], the “IP1 assay result (response curves)” value is listed as “incomplete response curves in this assay, showing agonistic activity”. Besides, in assay [2], the “B-arrestin assay activity, 2a receptor” value is reported as “Some activity”.
